These are literature values, as cited in US20040180006A1, “Methods and compositions for blocking the calcium cascade” (priority 2003, published 2004).

The subject of data set [1] is mast cell plasma membrane potential. To be noted: for effect on second (delayed) decrease of bis-oxonol fluorescence: induced by compound 48/80 or antigenic stimulation.
The test system of data set [2] is rat basophilic leukemia cells (RBL 2H3). To be noted: RBL 2H3 cells stimulated by immunoglobulin E-antigen; read-out: concentration required to inhibit histamine secretion from RBL 2H3 cells, immunoglobulin E-antigen.
The next data set has as its system guinea pig trachea. The settings on record: 10^-4 to 10^-3 M.
Data set [3] has as its system rat peritoneal mast cells.

pIC50: −log10 of the molar value. Read-outs that look alike come from different tables or passages of the source.

As for `C[C@@H]1O[C@@H](O[C@H]2C[C@@H](O)[C@]3(CO)[C@H]4[C@H](O)C[C@]5(C)[C@@H](C6=CC(=O)OC6)CC[C@]5(O)[C@@H]4CC[C@]3(O)C2)[C@H](O)[C@H](O)[C@H]1O` [ouabain], the “effect on second (delayed) decrease of bis-oxonol fluorescence” value in data set [1] was “inhibited”.
Regarding zinc gluconate, the pIC50 in data set [2] was 3.85; in data set [3] (peritoneal cells stimulated by imunoglobulin E-antigen, read-out: IC50 of histamine secretion, imunoglobulin E-antigen), 4.74; in data set [3] (peritoneal cells stimulated by ionophore A23187, read-out: IC50 of histamine secretion, ionophore A23187) it was 5.80; in data set [3] (peritoneal cells stimulated by phorbol 12-myristate 13-acetate, read-out: IC50 of histamine secretion, phorbol 12-myristate 13-acetate) it was 5.72; in data set [3] (peritoneal cells stimulated by substance P, read-out: IC50 of histamine secretion, substance P) it was 5.27. Moreover, the “effect on first (fast) decrease of bis-oxonol fluorescence” value in data set [1] (induced by compound 48/80) is “inhibited”. The “effect on second (delayed) decrease of bis-oxonol fluorescence” value in data set [1] is reported as “did not alter”. For the same compound, the “IgE-dependent contraction of guinea pig trachea” value in the data set with guinea pig trachea is “inhibited”. In addition, in the data set with guinea pig trachea, the “contraction of guinea pig trachea induced by endogenous histamine” value was “unable to affect”.
